Measurements reported in patent US8173133B2, “Acyl pseudodipeptides which carry a functionalized auxiliary arm” (OM Pharma, priority 1999, dated 2012).
pIC50: −log10 of the molar value.

Key:
HIV-1 IIIB = test: anti-HIV activity in MT-4 cells (MTT), HIV-1 IIIB; assay type: cell-based
Protocol: (§1) T MT-4 lymphocyte cell line which had been transformed into a continuous cell line by an HTLV infection, a virus associated with one form of leukemia, was used to test the antiviral activity (anti-HIV) of AZT- and d4T-conjugated compounds according to the invention, respectively. A characteristic feature of such cells is lack of survival following an HIV infection. The test is based on protection provided by the product (like AZT) against this viral destructive effect. Products were tested in serially diluted solutions in a 96-well plate. In the upper portion of the microplate, products were tested by incubation at various concentrations with cells and virus (in triplicate), so as to determine the concentration of product which affords cell protection against the viral destructive effect. IC50 of the product is taken as the concentration where a 50% loss of viable cell count is recorded. Viable cell count was done with MTT, a yellow tetrazolium compound which undergoes enzymatic reduction (at the mitochondrial level in viable cells) into a purple colored formazan compound. Wells containing viable cells are purple in colour, whereas dead cells give a persistent yellow color. Measurement of optical density (O.D.) allows this effect to be quantified.

[1] = cytotoxicity on virus-free MT-4 cells (MTT); assay type: cell-based; details: human, MT-4 cells (virus-free)
Protocol: Cytotoxicity of a given product is assessed in the same manner in the lower portion of the plate where the test is conducted by incubating serially diluted products over virus-free cells, to thereby determine the toxic effect of products on cells. The result is given as CC50, i.e. the concentration at which 50% of cells are dead due to product toxicity. Selectivity (selectivity index, SI) of a given product is defined as a CC50/IC50 ratio. This parameter is of great importance since the selectivity index of a fairly efficient product is high.

[2] = system: human peripheral blood mononuclear cells; test: inhibition of E. coli LPS-induced α TNF production in human peripheral blood mononuclear cells; assay type: cell-based; details: product 10 μg/ml; for 50% inhibition LPS: LPS concentration at which α TNF production is 50% of control; for max. Inhibition LPS: LPS concentration corresponding to maximum inhibition
Protocol: Mononuclear cells of peripheral blood are recovered from buffy coats of 6 healthy donors. Such buffy coat cells are resuspended and mononuclear cells are isolated by centrifugation on a Ficoll-Paque gradient (Amersham Pharmacia). Purified mononuclear cells are resuspended into RPMI-1640 medium supplemented with 10% FCS, antibiotics, mercaptoethanol and L-glutamine. Cell concentration is adjusted to 2×10^6 viable cells/ml.
Product mediated Inhibition is determined by preincubating those products with mononuclear cells, and adding, 1 hour later, serially diluted solutions of LPS capable of inducing α TFN production. […] E. coli LPS is serially diluted (10-fold dilution) to be in the range of 1 to 0.00001 μg/ml
50 μl of 10 μg/ml dilute product solutions in RPMI 1640 medium are dispensed into a microtiter plate. Each assay (10 μg/ml product concentration+dilute E. coli LPS) is run in triplicates and each microtiter plate includes a negative control comprised of plain medium. LPS-induced α TNF production (without inhibitor) is determined by adding E. coli LPS dilutions to RPMI medium.
100 μl of the cell suspension are added to each well containing dilutions of either product or control. Cells are incubated with the products for 1 hour in an incubator at 37° C., under 5% CO2 and a moisture saturated atmosphere.
At the end of the pre-incubation period, 50 μl of serially diluted solutions of E. coli LPS are added. Incubation of mononuclear cells with the product and LPS is extended for 18 hours. At the end of the cell activation period, the microtiter plates are centrifuged, and the supernatants are pooled and frozen at −80° C. as aliquots until time of ELISA assay.
Concentration of αTNF secreted by mononuclear cells is determined by chemiluminescent ELISA (QuantiGlo #QTAOO R&D kit). 4-fold dilutions of supernatant fluid are dispensed into each well of the microtiter plate to which anti-human αTNF antibodies are bound. The microtiter plate is incubated for 4 hours at room temperature. After washing, peroxidase-conjugated anti-human αTNF antibody is added. Following a 2 hour incubation period and a thorough washing, a chemiluminescent substrate is added and chemilunescence is read after 20 minutes. αTNF content in the supernatant fluid is determined with respect to a standard curve covering the 7000 to 0.7 pg/ml range.
Inhibition is characterized by the E. coli LPS concentration which elicits 50% production of α TNF during co-incubation in comparison to a control including only RPMI. This concentration increases as product inhibition activity becomes stronger. Knowing inhibition values of α TNF production, this concentration is given by calculating 100-(αTNF production induced by product and LPS)/(αTNF production induced by LPS alone)*100. From these inhibition data, concentration is determined by linear regression along the line segment which joins 2 LPS dilutions giving approx. 50% inhibition.
Product ability to inhibit α TNF production in mononuclear cells in response to LPS is further characterized by maximum inhibition. […] Results are calculated from a representative experience using all products.

HIV-2 ROD = test: anti-HIV activity in MT-4 cells (MTT), HIV-2 ROD; assay type: cell-based
Protocol: as §1

(NANP)6P2P30 antigen = test: (NANP)6P2P30 murine immunization model: anti-(NANP)6P2P30 IgG (ELISA); assay type: in vivo, BALB/c mice; details: two s.c. shots, serum at 5 weeks, FIG. 79

Row | SMILES | pIC50 (HIV-1 IIIB) | CC50 [1] | max. Inhibition [2] | 50% inhibition LPS [2] | max. Inhibition LPS [2] | pIC50 (HIV-2 ROD) | anti-(NANP)6P2P30 IgG serologic response ((NANP)6P2P30 antigen)
1 | CCCCCCCCCCCC(=O)O[C@H](CCCCCCCCCCC)CC(=O)N[C@H](CC(=O)O)C(=O)NCCC[C@H](COC(=O)CCCCCNC(=O)CCC(=O)OC[C@H]1O[C@@H](n2cc(C)c(=O)[nH]c2=O)C[C@@H]1N=[N+]=[N-])NC(=O)C[C@H](O)CCCCCCCCCCC [OM-197-MC-AC-Succ-AZT] | 7.28 | > 94000 nM | 100% | 0.45 µg/mL | 0.0005 µg/mL | 7.21 | 
2 | CCCCCCCCCCCC(=O)O[C@H](CCCCCCCCCCC)CC(=O)N[C@H](CC(=O)O)C(=O)NCCC[C@H](CO)NC(=O)C[C@H](O)CCCCCCCCCCC [OM-197-MC, N—[(R)-3-dodecanoyloxytetradecanoyl]-D-aspartic acid, α-N-{(4R)-5-hydroxy-4[(R)-3-hydroxytetradecanoylamino]-pentyl}amide] |  |  | 100% | 1 µg/mL | 0.0043 µg/mL |  | greatly superior to the one observed when injecting antigen alone
3 | CCCCCCCCCCCC(=O)O[C@H](CCCCCCCCCCC)CC(=O)NC(CCOP(=O)(O)O)C(=O)NCCCC(COC(=O)CCCCC(O)CO)NC(=O)C[C@H](O)CCCCCCCCCCC (stereo partly drawn) [OM-197-FV6, 3-[(R)-dodecanoyloxytetradecanoylamino]-4oxo-5-aza-9-[(R)-3-hydroxytetradecanoylamino]-decan-1,10-diol 1-dihydrogenphate 10-(6,7-dihydroxyheptanoate)] |  |  | 100% | >1 µg/mL | 0.014 µg/mL |  | greatly superior to the one observed when injecting antigen alone
4 | CCCCCCCCCCC[C@@H](O)CC(=O)N[C@H](CCCNC(=O)[C@@H](CC(=O)O)NC(=O)C(CCCCCC)OC(=O)CCCCCCCCC)COC(=O)CCCCCN (stereo partly drawn) [OM-197-N′(C10-20C8)-MC-AC, N-(2-decanoyloxyoctanoyl)-D-aspartic acid, α-N-{(4R)-5-(6-aminohexanoyloxy)-4-[(R)-3-hydroxytetradecanoylamino]-pentyl}amide] |  |  | 85% | 0.0009 µg/mL | <0.00001 µg/mL |  | 
5 | CCCCCCCCCCCC(=O)O[C@H](CCCCCCCCCCC)CC(=O)N[C@H](CC(=O)O)C(=O)NCCC[C@H](COC(=O)CCCCCNC(=O)CCC(=O)OC[C@@H]1C=C[C@H](n2cc(C)c(=O)[nH]c2=O)O1)NC(=O)C[C@H](O)CCCCCCCCCCC [OM-197-MC-AC-Succ-d4T] | 6.02 | ~97000 nM | 100% | 0.64 µg/mL | 0.00016 µg/mL | 6.29 | 
